Data on nine compounds can be found in ChEMBL document CHEMBL3045748, “A novel and eco-friendly procedure for the synthesis of some pyrazolo-thiadiazolo-pyrimidinones and its in vitro anti-bacterial activity” (2012).

What all share (type): functional
Holding throughout (conditions): read-out: DIZ

For one assay, the system named is Staphylococcus aureus. As to the kind of experiment: Antibacterial activity against Staphylococcus aureus at 50 ug after 18 hr by Kirby-Bauer's disk diffusion assay.
The subject of the next assay is Bacillus subtilis. As to the kind of experiment: Antibacterial activity against Bacillus subtilis at 50 ug after 18 hr by Kirby-Bauer's disk diffusion assay.
Another assay deals with Klebsiella. As to the kind of experiment: Antibacterial activity against Klebsiella at 50 ug after 18 hr by Kirby-Bauer's disk diffusion assay. Background: A growth-free zone around the sample is the usual read-out of agar diffusion tests.
The next assay concerns Escherichia coli. In words: Antibacterial activity against Escherichia coli at 50 ug after 18 hr by Kirby-Bauer's disk diffusion assay.

With `O=c1c2cnn(-c3ccccc3)c2nc2sc(CNc3ccccc3)nn12`, the zone of inhibition at 50 µg/disc with Staphylococcus aureus was found to be 14.5 mm; in the assay on Bacillus subtilis it was 14 mm; in the assay on Klebsiella it was 12.5 mm; with Escherichia coli, 10.5 mm.

`Cc1cccc(NCc2nn3c(=O)c4cnn(-c5ccccc5)c4nc3s2)c1`: the zone of inhibition at 50 µg/disc is 16.5 mm in the assay with Staphylococcus aureus, 17 mm in the assay on Bacillus subtilis, 12 mm in the assay with Klebsiella and 9.5 mm in the assay on Escherichia coli.

Turning to `CNCc1nn2c(=O)c3cnn(-c4ccccc4)c3nc2s1`, the zone of inhibition at 50 µg/disc in the assay on Staphylococcus aureus was found to be 13.5 mm; in the assay with Bacillus subtilis it was 6.5 mm; in the assay on Klebsiella it was 11.5 mm; with Escherichia coli it was 11 mm.

In the case of `O=c1c2cnn(-c3ccccc3)c2nc2sc(CNCc3ccco3)nn12`, the zone of inhibition at 50 µg/disc with Staphylococcus aureus is 20 mm; in the assay with Bacillus subtilis, 18.5 mm; in the assay with Klebsiella, 13 mm; in the assay with Escherichia coli it was 8.5 mm.

With `CC1(C)S[C@@H]2[C@H](NC(=O)[C@H](N)c3ccccc3)C(=O)N2[C@H]1C(=O)O` [AMPICILLIN], the zone of inhibition at 50 µg/disc with Staphylococcus aureus is 22.5 mm; in the assay on Bacillus subtilis, 23.3 mm; in the assay with Klebsiella, 24.5 mm; in the assay on Escherichia coli, 18.5 mm.

For `O=c1c2cnn(-c3ccccc3)c2nc2sc(CN3CCOCC3)nn12`, the zone of inhibition at 50 µg/disc was determined as 7.5 mm with Staphylococcus aureus, 7 mm in the assay on Bacillus subtilis, 14.5 mm with Klebsiella and 9 mm in the assay on Escherichia coli.

Regarding `CCCCCCNCc1nn2c(=O)c3cnn(-c4ccccc4)c3nc2s1`, the zone of inhibition at 50 µg/disc is 17.5 mm with Staphylococcus aureus, 20.5 mm with Bacillus subtilis, 11.5 mm with Klebsiella and 11 mm in the assay with Escherichia coli.

`CCNCc1nn2c(=O)c3cnn(-c4ccccc4)c3nc2s1`: the zone of inhibition at 50 µg/disc came out at 18.5 mm in the assay with Staphylococcus aureus, 16 mm in the assay on Bacillus subtilis, 12 mm in the assay on Klebsiella and 10.5 mm with Escherichia coli.

For `COc1ccc(NCc2nn3c(=O)c4cnn(-c5ccccc5)c4nc3s2)cc1`, the zone of inhibition at 50 µg/disc in the assay on Staphylococcus aureus turned out to be 15.5 mm; in the assay on Bacillus subtilis it was 15.5 mm; in the assay on Klebsiella, 14 mm; in the assay on Escherichia coli, 11.5 mm.
